Experimental data published in US20170114329A1, “SCALABLE ORGANOTYPIC MODELS OF TUMOR DORMANCY” (THE REGENTS OF THE UNIVERSITY OF CALIFORNIA, priority 2013, published 2017).
Entries after “also recorded” stand apart in the source; their conditions may differ.

Experiments:
Assay type in all cases: cell-based, human
[1] = tested on: E4-EC microvascular networks; experiment: Neovascular tip number in microvascular niche cultures; conditions: shNotch1 E4-EC vs shCtrl, day 7
Description: (§1) Microvascular niche cultures were generated with modifications to a previously described protocol, described in Evensen, L., et al. Mural cell associated VEGF is required for organotypic vessel formation. PLoS One 4, e5798 (2009), hereby incorporated by reference in its entirety. LFs or MSCs were seeded alone at a density of 5×10^4 cells/well in 96-well culture plates or with mCherry-E4-ECs at a 5:1 ratio to generate lung-like or BoMa-like microvascular niches, respectively. Cells were suspended in EGM-2 at a concentration 5×10^4 cells/100 μl (stroma only) or 6×10^4 cells/100 μl (stroma+ECs). After depositing 100 μl of cellular suspension per well of a 96-well plate, plates were left undisturbed on a flat surface for 20 min to allow even cell seeding prior to incubation.
Network properties were counted manually using the “cell counter” application in ImageJ.
E4ORF1-HUVECs were infected at 5 MOI with custom-made lentiviruses (Sigma) containing shRNA targeting human Notch1 in a pLKO.1-puro-CMV-TagRFP vector. Empty vector was used as a control (shCtrl).

Notch1 = Notch1 knockdown in E4ORF1-HUVEC, immunoblot; conditions: normalized to Lamin A/C
Excerpt: E4ORF1-HUVECs were infected at 5 MOI with custom-made lentiviruses (Sigma) containing shRNA targeting human Notch1 in a pLKO.1-puro-CMV-TagRFP vector. Empty vector was used as a control (shCtrl). Sequences for shRNA were as follows:
shNotch1-E4-ECs and shCtrl-E4-ECs were lysed in 2% SDS/PBS. Twenty μg of each lysate was then separated on a Tris-Glycine 4-20% gel. Notch1 was probed with a rabbit polyclonal antibody (AbCam ab27526, 1:500). The blot was stripped and re-probed with a rabbit polyclonal antibody to the nuclear membrane protein Lamin A/C, used here as a loading control (Santa Cruz Biotechnology sc-20681, 1:2000).

T4-2 cells = experiment: Growth of YFP T4-2 breast cancer cells on lung stroma (LF) cultures; conditions: add-back to T4-2 cells plated on lung stroma without ECs; normalized to vehicle condition
Description: as §1
After 7 days, YFP tumor cells were suspended in unsupplemented DMEM/F12 (800 cells/ml). YFP tumor cells were seeded (100 μl/well) after washing cultures thrice with PBS. […]
A macro was written using NIH ImageJ open source software to remove bias from data quantification. […] The total area fraction of the 6×6 tiled image occupied by YFP cells was then calculated. […] For each image, the measured area fraction at day 10 was normalized by the corresponding day 0 value in order to account for any small variations in seeding density from well-to-well.

Substance | number of endothelial tips [1] | endothelial cell Notch1 expression at the protein level (Notch1) | tumor cell growth (normalized tumor cell area fraction) (T4-2 cells)
sh8393: shRNA targeting human Notch1, SEQ ID NO: 1, in pLKO.1-puro-CMV-TagRFP lentiviral vector (CCGGCTTTGTTTCAGGTTCAGTATTCTCGAGAATACTGAACCTGAAACAAAGTTTTT) | significant reduction in the number of endothelial tips | significantly reduced endothelial cell Notch1 expression | –
thrombospondin-1 [TSP-1] | – | – | significant reduction in tumor cell growth; also recorded: sufficient to suppress BCC growth on lung stroma
